The target in this experiment is T1, ERα (Homo sapiens, UniProt P03372).
T1 construct: host or cells: MCF-7
T1 sequence (P03372 1-595): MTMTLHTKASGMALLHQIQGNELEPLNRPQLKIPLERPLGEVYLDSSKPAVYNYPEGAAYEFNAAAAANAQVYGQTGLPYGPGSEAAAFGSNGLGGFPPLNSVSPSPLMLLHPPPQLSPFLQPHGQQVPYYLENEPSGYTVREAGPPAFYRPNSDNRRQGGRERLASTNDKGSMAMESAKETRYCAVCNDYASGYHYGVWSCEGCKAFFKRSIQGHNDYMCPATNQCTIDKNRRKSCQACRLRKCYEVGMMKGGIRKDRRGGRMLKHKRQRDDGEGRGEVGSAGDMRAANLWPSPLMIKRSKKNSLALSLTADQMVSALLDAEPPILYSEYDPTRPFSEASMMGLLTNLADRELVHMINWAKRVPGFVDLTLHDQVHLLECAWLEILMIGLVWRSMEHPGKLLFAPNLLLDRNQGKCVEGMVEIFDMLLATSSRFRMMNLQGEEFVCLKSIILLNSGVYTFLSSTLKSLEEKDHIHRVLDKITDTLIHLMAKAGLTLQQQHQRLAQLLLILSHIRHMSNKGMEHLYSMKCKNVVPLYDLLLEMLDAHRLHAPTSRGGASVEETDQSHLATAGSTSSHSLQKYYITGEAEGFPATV
Nature of the experiment: ER degradation activity in MCF-7 cells (Western blot, grayscale intensity). The format is cell-based. The conditions noted are these: 6 hours treatment, 1 nM to 100 nM, concentration required to degrade 50% of the target protein. As to the method:
ERα-positive human breast cancer cells MCF-7 (ATCC, HTB-22) were cultured with EMEM medium (ATCC, catalog number 30-2003) containing 10% fetal bovine serum (Thermo Fisher, catalog number 10099141) and 10 µg/mL bovine insulin in 25 cm^2 or 75 cm^2 plastic tissue culture flasks in a 37 °C incubator with 5% CO2. The cells were passaged 2 to 3 times per week. MCF-7 cells were seeded in 6-well plate at 1×10^6 cells/well with 1.8 mL culture medium per well, and cultured in a 37 °C incubator with 95% air and 5% CO2. After 24 hours, the test compounds were added: the compounds were serially diluted 10-fold in DMSO starting from 10 mM (dissolved in DMSO) to prepare gradient stock solutions. A complete culture medium containing 1% DMSO was prepared for further dilution, temporarily named as the "dilution buffer." Working solutions were prepared by diluting each stock solution with 99 times the volume of dilution buffer, that is, by adding 1 µL of the 10 mM stock solution to 99 µL of the dilution buffer and mixing thoroughly.
Finally, […] of the working solution was added to the cell-seeded culture plate. The final concentration of DMSO in the cell culture medium was 0.2%, and the final concentration of the test compounds ranged from 1 nM to 100 nM. The cells were then incubated at 37 °C for 6 hours.
The culture medium was removed, and the cells were washed twice with ice cold PBS. 1 mL of PBS was added to each well, and the cells were collected into EP tubes using a cell scraper, and centrifuged at 4 °C, 4000 rpm for 5 minutes. PBS was aspirated. Total protein was extracted using the Minute™ Mammalian Tissue/Cell Total Protein Extraction Reagent. The protein concentration was measured using the BCA protein assay kit. 30 µg of protein was taken and mixed with 5× SDS-PAGE loading buffer, boiled for 10 minutes, and cooled. The samples were loaded into wells of a precast gel, with constant voltage at 80 V for 30 minutes, and then the voltage was changed to 120 V after the samples entered the resolving gel. The "sandwich" (sponge - filter paper - gel - membrane - filter paper - sponge) was assembled for Bio-Rad's Transblot. Transfer was performed for 1 hour at 0.3 amp at 4 °C. The sample was blocked with 5% fat-free milk for 1 hour, and incubated with Estrogen Receptor alpha Antibody (Thermo Fisher, catalog number MA5-14104) overnight at 4 °C. The membrane was washed with TBST to remove non-specifically bound antibodies, and then incubated with goat anti-mouse IgG-HRP secondary antibody for 1 hour at room temperature, and was visualized using ECL. The protein degradation level was calculated by measuring the grayscale intensity.
The DC50 values (i.e., the concentration of the test compounds required to degrade 50% of the target protein) were calculated and shown in Table 1. A corresponds to a DC50 value below 10 nM, B corresponds to a DC50 value greater than 10 nM and less than 100 nM, and C corresponds to DC50 values greater than 100 nM. Table 1. The DC50 values of exemplary compounds in MCF-7 cells
(Immunoblotting shows a protein as a band on a membrane.)

A value given as a limit tells only on which side of the number the result lay.

A word on the DC50: it is the concentration giving 50% degradation. Read a low DC50 as a more potent degrader.

Regarding `CC1(C)CC(=C(c2ccc(N3CCC4(CC3)CN(C(=O)CN3Cc5cc6c(cc5C3)C(=O)N(C3CCC(=O)NC3=O)C6)C4)nc2)c2ccc3[nH]nc(F)c3c2)CC(C)(C)O1` (centres unmarked) [Compound 70], the DC50 was in the range of 0.01 to 0.1 µM.
Consider `CC1(C)CC(=C(c2ccc(N3CC4(CCN(C(=O)CN5Cc6cc7c(cc6C5)C(=O)N(C5CCC(=O)NC5=O)C7)C4)C3)nc2)c2ccc3[nH]nc(F)c3c2)CC(C)(C)O1` (centres unmarked) [Compound 71], for which the 50% degradation concentration (DC50) is > 0.1 µM.
For the molecule `CC1(C)CC(=C(c2ccc(N3CCC4(CN(C(=O)CN5Cc6cc7c(cc6C5)C(=O)N(C5CCC(=O)NC5=O)C7)C4)C3)nc2)c2ccc3[nH]nc(F)c3c2)CC(C)(C)O1` (centres unmarked) [Compound 72], the DC50 was > 0.1 µM.
For the molecule `CC1(C)CC(=C(c2ccc(N3CCC4(CC3)CN(C(=O)CN3Cc5cc6c(cc5C3)C(=O)N(C3CCC(=O)NC3=O)C6=O)C4)nc2)c2ccc3[nH]nc(F)c3c2)CC(C)(C)O1` (centres unmarked) [Compound 74], the DC50 was > 0.1 µM.
The same measure for `CC1(C)CC(=C(c2ccc(N3CCC(CN4CCN(c5cccc(N6CCC(=O)NC6=O)c5)CC4)CC3)nc2)c2ccc3[nH]nc(F)c3c2)CC(C)(C)O1` [Compound 75]: > 0.1 µM; for `CC1(C)CC(=C(c2ccc(N3CCC(CN4CCN(c5ccc(N6CCC(=O)NC6=O)cc5)CC4)CC3)cc2)c2ccc3[nH]nc(F)c3c2)CC(C)(C)O1` [Compound 76]: 0.01 to 0.1 µM.
Turning to `CC1(C)CC(=C(c2ccc(N3CCC(N4CCN(c5ccc(N6CCC(=O)NC6=O)cc5)CC4)CC3)cc2)c2ccc3[nH]nc(F)c3c2)CC(C)(C)O1` [Compound 78], the 50% degradation concentration (DC50) was > 0.1 µM.
For `CC1(C)CC(=C(c2ccc(N3CCN(C4CCN(c5ccc(N6CCC(=O)NC6=O)cc5)CC4)CC3)cc2)c2ccc3[nH]nc(F)c3c2)CC(C)(C)O1` [Compound 81], the DC50 was > 0.1 µM.
With `CC1(C)CC(=C(c2ccc(N3CCN(C4CN(c5ccc(N6CCC(=O)NC6=O)cc5)C4)CC3)cc2)c2ccc3[nH]nc(F)c3c2)CC(C)(C)O1` [Compound 82], the DC50 was > 0.1 µM.
With `CC1(C)CC(=C(c2ccc(N3CCC(CN4CCN(c5ccc(F)c(NC6CCC(=O)NC6=O)c5)CC4)CC3)nc2)c2ccc3[nH]nc(F)c3c2)CC(C)(C)O1` (centres unmarked) [Compound 83], the DC50 was < 0.01 µM.
The same measure for `CC1(C)CC(=C(c2ccc(N3CC4(CN(C(=O)CN5CCC(c6ccc(NC7CCC(=O)NC7=O)cc6F)CC5)C4)C3)nc2)c2ccc3[nH]nc(F)c3c2)CC(C)(C)O1` (centres unmarked) [Compound 84]: > 0.1 µM; for `CC1(C)CC(=C(c2ccc(N3CCC(N4CCN(c5ccc(NC6CCC(=O)NC6=O)cc5)CC4)CC3)cc2)c2ccc3[nH]nc(F)c3c2)CC(C)(C)O1` (centres unmarked) [Compound 86]: > 0.1 µM; for `CC1(C)CC(=C(c2ccc(N3CCC(CN4CCN(c5ccc(NC6CCC(=O)NC6=O)cc5)CC4)CC3)cc2)c2ccc3[nH]nc(F)c3c2)CC(C)(C)O1` (centres unmarked) [Compound 87]: > 0.1 µM.
For `CC1(C)CC(=C(c2ccc(N3CCN(C4CCN(c5ccc(NC6CCC(=O)NC6=O)cc5)CC4)CC3)cc2)c2ccc3[nH]nc(F)c3c2)CC(C)(C)O1` (centres unmarked) [Compound 91], the DC50 was > 0.1 µM.
The same measure for `Cn1nc(N2CCC(=O)NC2=O)c2ccc(C3CCN(CC(=O)N4CCN(c5ccc(C(=C6CC(C)(C)OC(C)(C)C6)c6ccc7[nH]nc(F)c7c6)cn5)CC4)CC3)cc21` [Compound 92]: > 0.1 µM.
Regarding `Cn1nc(N2CCC(=O)NC2=O)c2ccc(C3CCN(CC(=O)N4CCN(c5ccc(C(=C6CC(C)(C)OC(C)(C)C6)c6ccc7[nH]nc(F)c7c6)cn5)CC4)CC3(F)F)cc21` (centres unmarked) [Compound 93], the DC50 is > 0.1 µM.
In the case of `Cn1nc(N2CCC(=O)NC2=O)c2ccc(C3CCN(CC(=O)N4CC5(C4)CN(c4ccc(C(=C6CC(C)(C)OC(C)(C)C6)c6ccc7[nH]nc(F)c7c6)cn4)C5)CC3(F)F)cc21` (centres unmarked) [Compound 94], the half-maximal degradation concentration (DC50) was > 0.1 µM.
`Cn1nc(N2CCC(=O)NC2=O)c2ccc(C3CCN(CC(=O)N4CC5(C4)CN(c4ccc(C(=C6CC(C)(C)OC(C)(C)C6)c6ccc7[nH]nc(F)c7c6)cn4)C5)CC3)cc21` [Compound 95]: the DC50 is > 0.1 µM.
In the case of `CC1(C)CC(=C(c2ccc(N3CCC(CN4CCN(c5cccn6c(N7CCC(=O)NC7=O)cnc56)CC4)CC3)nc2)c2ccc3[nH]nc(F)c3c2)CC(C)(C)O1` [Compound 96, 1-(8-(4-((1-(5-((3-fluoro-1H-indazole-5-yl)(2,2,6,6-tetramethyltetrahydro-4H-pyran-4-ylidene)methyl)pyridin-2-yl)piperidin-4-yl)methyl)piperazin-1-yl)imidazole [1,2-a]pyridin-3-yl)dihydropyrimidine-2,4 (1H, 3H) - dione], the 50% degradation concentration (DC50) is < 0.01 µM.
On to `CN(CC1CCN(c2ccc(C(=C3CC(C)(C)OC(C)(C)C3)c3ccc4[nH]nc(F)c4c3)cn2)CC1)C1CCN(c2cccn3c(N4CCC(=O)NC4=O)cnc23)CC1` [Compound 97], for which the DC50 fell in the range of 0.01 to 0.1 µM.
Turning to `CN(CC1CCN(c2ccc(C(=C3CC(C)(C)OC(C)(C)C3)c3ccc4[nH]nc(F)c4c3)cn2)CC1)C1CCN(c2ccn3c(N4CCC(=O)NC4=O)cnc3c2)CC1` [Compound 98], the 50% degradation concentration (DC50) was > 0.1 µM.
As to `Cn1c(=O)n(C2CCC(=O)NC2=O)c2cccc(C3CCN(CC4CCN(c5ccc(C(=C6CC(C)(C)OC(C)(C)C6)c6ccc7[nH]nc(F)c7c6)cn5)CC4)CC3)c21` (centres unmarked) [Compound 99], the half-maximal degradation concentration (DC50) is 0.01 to 0.1 µM.
The same measure for `Cn1c(=O)n(C2CCC(=O)NC2=O)c2cccc(C#CCOC3CCN(c4ccc(C(=C5CC(C)(C)OC(C)(C)C5)c5ccc6[nH]nc(F)c6c5)cn4)CC3)c21` (centres unmarked) [Compound 100]: > 0.1 µM.
As for `Cn1c(=O)n(C2CCC(=O)NC2=O)c2cccc(C#CCN3CCN(c4ccc(C(=C5CC(C)(C)OC(C)(C)C5)c5ccc6[nH]nc(F)c6c5)cn4)CC3)c21` (centres unmarked) [Compound 101], the DC50 is > 0.1 µM.
In the case of `CC1(C)CC(=C(c2ccc3[nH]nc(F)c3c2)c2c(F)cc(N3CCN(CC4CCN(c5ccc6c(c5)C(=O)N(C5CCC(=O)NC5=O)C6=O)CC4)CC3)cc2F)CC(C)(C)O1` (centres unmarked) [Compound 102], the 50% degradation concentration (DC50) was > 0.1 µM.
As for `CC1(C)CC(=C(c2ccc(N3CCC(CN4CCN(c5ccc6c(c5)C(=O)N(C5CCC(=O)NC5=O)C6=O)CC4)CC3)nc2)c2ccc3[nH]nc(F)c3c2)CC(C)(C)O1` (centres unmarked) [Compound 103], the DC50 was in the range of 0.01 to 0.1 µM.
`CC1(C)CC(=C(c2ccc(N3CCC(N4CCN(c5ccc6c(c5)C(=O)N(C5CCC(=O)NC5=O)C6=O)CC4)CC3)nc2)c2ccc3[nH]nc(F)c3c2)CC(C)(C)O1` (centres unmarked) [Compound 104]: the DC50 was > 0.1 µM.
For the molecule `CC1(C)CC(=C(c2ccc(N3CCN(C4CCN(c5ccc6c(c5)C(=O)N(C5CCC(=O)NC5=O)C6=O)CC4)CC3)nc2)c2ccc3[nH]nc(F)c3c2)CC(C)(C)O1` (centres unmarked) [Compound 105], the DC50 was < 0.01 µM.
In the case of `CC1(C)CC(=C(c2ccc(N3CCN(C4CN(c5ccc6c(c5)C(=O)N(C5CCC(=O)NC5=O)C6=O)C4)CC3)nc2)c2ccc3[nH]nc(F)c3c2)CC(C)(C)O1` (centres unmarked) [Compound 106], the DC50 is > 0.1 µM.
Turning to `CC1(C)CC(=C(c2ccc(N3CCC(CN4CCN(c5cccc(NC6CCC(=O)NC6=O)c5)CC4)CC3)cc2)c2ccc3[nH]nc(F)c3c2)CC(C)(C)O1` (centres unmarked) [Compound 107], the 50% degradation concentration (DC50) is > 0.1 µM.
The same measure for `CC1(C)CC(=C(c2ccc(N3CCN(C4CCN(c5cccc(NC6CCC(=O)NC6=O)c5)CC4)CC3)cc2)c2ccc3[nH]ncc3c2)CC(C)(C)O1` (centres unmarked) [Compound 108]: > 0.1 µM.
The same measure for `CC1(C)CC(=C(c2ccc(N3CC4(CCC(N5CCN(c6ccc7c(c6)CN(C6CCC(=O)NC6=O)C7=O)CC5)CC4)C3)nc2)c2ccc3[nH]nc(F)c3c2)CC(C)(C)O1` (centres unmarked) [Compound 109]: < 0.01 µM.

The values above are taken from patent EP4722209A1 (Beijing Shenogen Pharma Group, priority 2023, dated 2024).
